Measured values as given in article PMC6220303 (EMBO Molecular Medicine, 2018).
Where two headings read alike, the source gives them in different places.

Key:
Aβ40 and Aβ42 in dog CSF = Aβ40 and Aβ42 in dog CSF after single oral dose, PK/PD modeling; format: in vivo; settings: Canis lupus familiaris
Protocol: Therefore, we measured Aβ40 in rat brain tissue 4 h after oral administration over a range of doses. […] In addition, the effect‐over‐time curves for brain and CSF almost completely superimposed, showing that Aβ pharmacodynamics in CSF mirrors very well that in brain tissue.
(§1) Electrochemiluminescence immunoassays (Mesoscale Diagnostics, Rockville, MD, USA) were used to determine Aβ38, Aβ40, Aβ42, sAPPα, and sAPPβ. For studies in normal mice and rats, the endogenous Aβ40 was extracted from the brain homogenate with 1% Triton X‐100, and the 4G8‐based assay kit was used for quantification according to the manufacturer's instructions. CSF was collected from the cisterna magna and also analyzed using the 4G8 kit. For studies in dogs, CSF was collected via a ventricular port, and the 6E10‐based Mesoscale Diagnostics kit for Aβ was used. For studies in APP23 mice, Aβ40 and Aβ42 were determined after extraction with 70% formic acid and subsequent neutralization.

[1] = molecular target: Monoamine transporter VMAT2 (Rattus norvegicus, UniProt Q01827); experiment: Functional assay; format: biochemical; settings: read-out: Inhibition at 10 µM
Sequence of Monoamine transporter VMAT2 (Q01827 whole entry): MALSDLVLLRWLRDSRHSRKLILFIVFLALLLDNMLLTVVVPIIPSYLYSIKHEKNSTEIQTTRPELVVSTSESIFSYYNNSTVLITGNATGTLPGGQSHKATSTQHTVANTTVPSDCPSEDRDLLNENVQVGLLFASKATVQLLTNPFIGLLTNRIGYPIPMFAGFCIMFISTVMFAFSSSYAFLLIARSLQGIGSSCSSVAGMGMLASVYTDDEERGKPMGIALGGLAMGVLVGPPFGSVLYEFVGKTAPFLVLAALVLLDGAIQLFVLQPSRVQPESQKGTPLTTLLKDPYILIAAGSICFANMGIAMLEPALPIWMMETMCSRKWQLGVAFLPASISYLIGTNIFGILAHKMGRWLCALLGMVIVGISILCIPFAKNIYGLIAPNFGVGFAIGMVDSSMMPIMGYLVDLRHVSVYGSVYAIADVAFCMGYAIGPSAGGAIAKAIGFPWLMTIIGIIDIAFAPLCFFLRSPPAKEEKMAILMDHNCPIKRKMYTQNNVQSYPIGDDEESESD
Protocol: (§2) Cellular Aβ release assays were done in CHO cells stably transfected with human wild‐type and human APP were done as described (Neumann et al, 2015). Determinations of logD, pKa, and binding to brain homogenates were done internally at Novartis, Basel. Plasma protein binding was determined by equilibrium dialysis using diluted plasma from the corresponding species. MDR‐1‐MDCK cells were obtained from Prof. A. Berns, Netherlands Cancer Institute, Amsterdam NL, and bi‐directional transport measurements were done as described (Rueeger et al, 2011). Receptor binding assays were done against an internal receptor panel and externally at Ricerca Biosciences, Peitou, Taiwan. In vitro binding and cellular patch clamp assays for hERG were done at Preclinical Safety, Novartis, Basel.

H Nav 1.2 = H Nav 1.2 (Homo sapiens, UniProt Q99250); experiment: Functional assay; format: biochemical; settings: read-out: Inhibition at 10 µM
Sequence of H Nav 1.2 (Q99250 whole entry): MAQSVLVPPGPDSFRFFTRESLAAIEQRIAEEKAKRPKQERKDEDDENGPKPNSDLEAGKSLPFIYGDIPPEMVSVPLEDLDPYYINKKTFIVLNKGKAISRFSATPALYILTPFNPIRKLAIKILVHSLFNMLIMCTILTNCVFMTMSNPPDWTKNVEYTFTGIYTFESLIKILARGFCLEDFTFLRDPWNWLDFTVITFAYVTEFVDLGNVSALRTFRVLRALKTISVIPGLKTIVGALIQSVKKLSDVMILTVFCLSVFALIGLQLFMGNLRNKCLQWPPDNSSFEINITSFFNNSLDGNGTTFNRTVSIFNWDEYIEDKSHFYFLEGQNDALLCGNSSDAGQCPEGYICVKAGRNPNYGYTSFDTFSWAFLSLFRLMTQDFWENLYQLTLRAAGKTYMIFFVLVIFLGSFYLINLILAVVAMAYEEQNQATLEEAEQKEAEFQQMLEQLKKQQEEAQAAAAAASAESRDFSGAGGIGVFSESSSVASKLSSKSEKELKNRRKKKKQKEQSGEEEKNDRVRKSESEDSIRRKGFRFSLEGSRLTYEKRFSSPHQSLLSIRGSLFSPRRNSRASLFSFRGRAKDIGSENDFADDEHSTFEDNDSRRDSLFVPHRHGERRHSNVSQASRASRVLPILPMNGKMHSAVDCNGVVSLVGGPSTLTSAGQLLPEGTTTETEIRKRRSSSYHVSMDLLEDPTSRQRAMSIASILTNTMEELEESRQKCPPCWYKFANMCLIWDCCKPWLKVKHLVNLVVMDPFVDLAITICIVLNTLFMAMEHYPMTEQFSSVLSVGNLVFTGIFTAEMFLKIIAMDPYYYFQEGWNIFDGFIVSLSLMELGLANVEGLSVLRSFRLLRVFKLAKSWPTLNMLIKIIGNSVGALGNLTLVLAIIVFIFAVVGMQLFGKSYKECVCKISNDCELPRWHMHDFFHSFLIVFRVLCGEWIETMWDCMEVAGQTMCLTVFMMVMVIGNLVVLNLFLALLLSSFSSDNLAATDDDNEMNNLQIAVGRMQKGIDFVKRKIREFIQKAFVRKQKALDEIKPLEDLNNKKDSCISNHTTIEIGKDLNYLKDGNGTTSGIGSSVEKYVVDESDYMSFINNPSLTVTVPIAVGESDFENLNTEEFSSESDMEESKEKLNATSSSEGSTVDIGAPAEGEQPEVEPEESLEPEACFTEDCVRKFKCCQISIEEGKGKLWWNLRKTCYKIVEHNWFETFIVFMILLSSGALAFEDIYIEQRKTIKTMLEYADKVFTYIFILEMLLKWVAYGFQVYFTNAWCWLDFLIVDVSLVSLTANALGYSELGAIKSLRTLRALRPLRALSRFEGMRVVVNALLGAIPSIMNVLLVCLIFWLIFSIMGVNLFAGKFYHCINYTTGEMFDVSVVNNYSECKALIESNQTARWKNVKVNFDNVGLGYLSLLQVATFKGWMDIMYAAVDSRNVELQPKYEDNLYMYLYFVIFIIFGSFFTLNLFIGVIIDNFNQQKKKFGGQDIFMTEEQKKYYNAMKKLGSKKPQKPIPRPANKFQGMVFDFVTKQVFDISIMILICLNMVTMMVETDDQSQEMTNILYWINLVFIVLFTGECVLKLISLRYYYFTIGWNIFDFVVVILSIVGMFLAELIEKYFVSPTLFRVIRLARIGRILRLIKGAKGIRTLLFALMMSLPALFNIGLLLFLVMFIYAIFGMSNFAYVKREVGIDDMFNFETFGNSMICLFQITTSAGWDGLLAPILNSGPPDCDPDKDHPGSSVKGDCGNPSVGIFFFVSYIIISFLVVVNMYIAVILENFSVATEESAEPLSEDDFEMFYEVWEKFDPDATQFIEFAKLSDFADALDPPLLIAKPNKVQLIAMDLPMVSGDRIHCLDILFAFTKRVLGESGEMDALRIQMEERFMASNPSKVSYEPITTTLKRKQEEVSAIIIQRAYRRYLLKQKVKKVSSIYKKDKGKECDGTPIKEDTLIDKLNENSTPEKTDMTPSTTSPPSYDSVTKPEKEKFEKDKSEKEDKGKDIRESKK
Protocol: as §2

rats = experiment: Long-term toxicology studies in rats; format: in vivo, rat
Protocol: In vivo animal toxicity studies were performed according to ICH guidance for industry M3(R2) and conformed to the Institutional Animal Care and Use Guidelines for the contract laboratory and sponsor. […] Recovery was assessed after a 12‐week treatment‐free period. Beagle dogs from Marshall BKU UK, 11 months of age, were given 0 (vehicle), 5, 15, or 30 mg/kg/day for 39 weeks. Vehicle consisted of 0.5% (w/v) methylcellulose (1,500 cPS) in 0.1% (v/v) polysorbate 80 (Tween®‐80) in reverse osmosis water. At necropsy, tissues were immersion fixed in 10% neutral‐buffered formalin or modified Davidson's solution and then processed by routine methods to paraffin block and hematoxylin–eosin (H&E)‐stained histologic slides.

[2] = tested on: Aβ40 in APOE4‐TR mouse forebrain; experiment: Forebrain Aβ40 in APOE4-TR mice; format: in vivo; settings: highest dose of 17 mg/kg (30 μmol/kg), 4 h after dosing
Protocol: Data were analyzed with one way ANOVA and Dunnett's multiple comparison test. • B Distribution of APOE4 genotypes in the Phase IIa study versus their baseline Aβ42/40 ratios. The dashed line at Aβ42/40 ratio of 0.09 represents a cutoff, which separates a normal ratio from an abnormally low ratio. • C Comparison of CSF Aβ40 reduction in APOE4 non‐carriers and APOE4 carriers (mean ± SD). • D Comparison of CSFAβ40 reduction in participants with Aβ42/40 ≥ 0.09 and Aβ42/40 < 0.09 (mean ± SD). • E Comparison of Aβ42/40 ratio at baseline and at day 91 for all participants in the placebo, 35 mg, and 85‐mg dose group (mean ± SD, n = 25/group). • F Change of Aβ42/40 ratio for all participants with Aβ42/40 ≤ 0.09 at baseline; bars represent mean ± SD. […] Data were analyzed with one way ANOVA and Dunnett's multiple comparison test. […]
as §1, with “For studies in dogs, CSF was collected via a ventricular port, and the 6E10‐based Mesoscale Diagnostics kit for Aβ was used.” left out

APP23 mice = settings: APP23, mouse, in vivo, 3 months
CSF Aβ = experiment: Human CSF Aβ after 2-week once-daily dosing; format: in vivo; settings: 2 weeks, 24 h after last dose, mean ± SEM
Protocol: (A) Changes in Aβ40 relative to baseline values. (B) Changes in sAPPβ relative to baseline values.
CSF was sampled by single lumbar punctures at baseline and 24 h after the last dose, and the change in Aβ concentrations from baseline to end of treatment was determined.
Human CSF was collected from an indwelling spinal catheter inserted into the lower spinal canal (in the single ascending dose (SAD) PD first in human (FIH) study) or by a lumbar puncture (in the multiple ascending dose (MAD) PD Phase I study and Phase IIa study), and by trained personnel at the site and as per their standard operating procedure (SOP). CSF Aβ38, Aβ40, Aβ42, sAPPα, and sAPPβ were quantified in human CSF with 0.2% (v/v) Tween®‐20 using validated sandwich‐based multiplexed electrochemiluminescence methods (MesoScale Discovery, […], MD, USA).

[3] = tested on: Calcium channel L-type, phenylalkylamine site; experiment: Receptor panel binding; parameters: species or system Rat
Protocol: as §2

[4] = tested on: Imidazoline I2 receptor central; experiment: Receptor panel binding; parameters: species or system Rat
Protocol: as §2

[5] = tested on: Sodium channel, binding site 2; experiment: Receptor panel binding; parameters: species or system Rat
Protocol: as §2

C[C@@]1(c2nc(NC(=O)c3ncc(C(F)(F)F)cc3Cl)ccc2F)CO[C@@](C)(C(F)(F)F)C(N)=N1 [CNP520]
IC50 (Aβ40 and Aβ42 in dog CSF; read-out: IC50 in vivo (free ED50), unbound CNP520 in dog blood, PK/PD modeling estimate): 3.3 ± 0.03 nM | IC50 (Aβ40 and Aβ42 in dog CSF; read-out: IC50 in vivo, total CNP520 in dog blood, PK/PD modeling estimate): 103 ± 12.3 nM | inhibition at 10 µM [1]: 80% | inhibition at 10 µM (H Nav 1.2): 23.6% | dose with delayed ovulation and slightly reduced fecundity and fertility indices (rats; female rats): ≥ 30 mg/kg/day | safety margin: exposure at NOAEL vs exposure at 85 mg in Phase IIa (rats; female rats): ≥ 7 fold | fecundity and fertility indices (rats; female rats at ≥ 30 mg/kg/day, 90% in control animals): 74% | safety margin: exposure at NOAEL vs exposure at 85 mg in Phase IIa (rats; male rats): ≥ 5 fold | dose with adverse (CNS/clinical) effects (rats; male rats, long-term toxicology): ≥ 500 mg/kg/day | reduction in Aβ40 [2]: 77% | Hemorrhage (H & E staining) % affected (APP23 mice): 7% | Hemorrhage (H & E staining) Grade 1, number of animals affected (APP23 mice): 1 | Hemorrhage (H & E staining) Grade 2, number of animals affected (APP23 mice): 0 | Hemosiderin (Perl’s staining) % affected (APP23 mice): 47% | Hemosiderin (Perl’s staining) Grade 1, number of animals affected (APP23 mice): 7 | Hemosiderin (Perl’s staining) Grade 2, number of animals affected (APP23 mice): 0 | Aβ reduction in CSF from baseline to end of treatment (CSF Aβ; 10 mg daily dose): 59.8 ± 9.88% | Aβ reduction in CSF from baseline to end of treatment (CSF Aβ; 300 mg daily dose): 93.9 ± 2.09% | inhibition at 10 µM [3]: 78% | inhibition at 10 µM [4]: 61% | inhibition at 10 µM [5]: 104%
